Counter-ions that a name gives are not always drawn.
Columns and labels:
Type in all cases: biochemical
[1] = target: T1, recombinant human VAP-1 (Homo sapiens, UniProt Q16853); experiment: Activity evaluation on recombinant human VAP-1 (Amplex Red/HRP-coupled hydrogen peroxide assay, benzylamine substrate); conditions: recombinant human VAP-1; 30 min preincubation at 37° C.; 1 mM benzylamine; read-out: Inhibitory Activity (IC50, nM) human VAP-1
T1 construct: purchased R&D systems
T1 sequence (Q16853 1-763): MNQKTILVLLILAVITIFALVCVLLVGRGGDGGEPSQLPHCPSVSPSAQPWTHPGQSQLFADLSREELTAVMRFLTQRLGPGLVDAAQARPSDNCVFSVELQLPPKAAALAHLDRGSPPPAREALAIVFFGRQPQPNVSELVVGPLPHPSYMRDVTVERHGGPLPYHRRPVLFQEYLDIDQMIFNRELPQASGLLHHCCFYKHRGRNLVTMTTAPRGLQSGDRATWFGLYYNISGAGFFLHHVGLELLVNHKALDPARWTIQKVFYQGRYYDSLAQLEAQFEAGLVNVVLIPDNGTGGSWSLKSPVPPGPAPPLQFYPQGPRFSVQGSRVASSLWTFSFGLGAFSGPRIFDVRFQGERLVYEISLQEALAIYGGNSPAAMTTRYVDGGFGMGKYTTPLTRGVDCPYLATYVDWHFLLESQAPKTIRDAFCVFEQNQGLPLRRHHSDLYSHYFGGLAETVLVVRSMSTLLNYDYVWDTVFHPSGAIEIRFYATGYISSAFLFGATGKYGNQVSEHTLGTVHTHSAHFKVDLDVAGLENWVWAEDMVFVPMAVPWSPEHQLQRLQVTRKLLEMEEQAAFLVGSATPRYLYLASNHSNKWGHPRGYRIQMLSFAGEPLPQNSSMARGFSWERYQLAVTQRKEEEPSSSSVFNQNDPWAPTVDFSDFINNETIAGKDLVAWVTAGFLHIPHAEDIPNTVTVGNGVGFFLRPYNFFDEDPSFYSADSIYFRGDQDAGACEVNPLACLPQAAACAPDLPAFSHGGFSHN
Description: (§1) The compounds according to the present technology were evaluated in terms of activity on recombinant human VAP-1 (R&D systems) by measuring the level of hydrogen peroxide in horseradish peroxidase (HRP)-coupled reaction using Amplex Red Hydrogen Peroxide Assay Kit (Molecular Probes, Invitrogen, USA). The experiment was carried out at room temperature using benzylamine as a substrate. In the HRP-coupled reaction, hydrogen peroxide oxidation of 10-acetyl-3,7-dihydroxyphenoxazine (Amplex Red reagent) produces resorufin, which is a highly fluorescent compound. Briefly, the test compound was dissolved in dimethyl sulfoxide (DMSO) at a concentration of 20 mM. The dose-response assessment was made by 1:3 serial dilution in DMSO, thereby creating a 8 point curve. The concentration of the upper part was controlled according to the efficacy of the compounds, followed by the dilution with a reaction buffer solution to obtain a final DMSO concentration of less than 1%. To each well of a 96 black well plate, human VAP-1 purified in 50 mM sodium phosphate buffer solution (pH7.4) was added. The test compounds dissolved in DMSO were incubated with the human VAP-1 enzymes at 37° C. for 30 minutes. After 30-minute incubation, each well was added with a reaction mixture containing 200 uM Amplex Red reagent prepared from 50 mM sodium phosphate buffer solution (pH 7.4), 1 mM benzylamine, and 1 U/mL HRP. Fluorescence intensity was measured at several time points during 1-2 hours using a microplate reader (Flexstation3, Molecular Devices) under the wavelength condition exciting at 544 nm and reading the emission at 590 nm. The inhibitory effect of the compounds was measured as a decrease (%) in the signal rate as compared to the control group without any inhibitor (only diluted DMSO). Data was fixed to a logistic model with four variables and IC50 value was calculated using GraphPad Prism program.

[2] = target: T2, recombinant human DAO (diamine oxidase) (Homo sapiens, UniProt P19801); experiment: Activity evaluation on recombinant human DAO (Amplex Red/HRP-coupled assay, 1 mM putrescine substrate); conditions: 1 mM putrescine, read-out: Inhibitory Activity (IC50, nM) DAO
T2 construct: purchased R&D systems
T2 sequence (P19801 20-751): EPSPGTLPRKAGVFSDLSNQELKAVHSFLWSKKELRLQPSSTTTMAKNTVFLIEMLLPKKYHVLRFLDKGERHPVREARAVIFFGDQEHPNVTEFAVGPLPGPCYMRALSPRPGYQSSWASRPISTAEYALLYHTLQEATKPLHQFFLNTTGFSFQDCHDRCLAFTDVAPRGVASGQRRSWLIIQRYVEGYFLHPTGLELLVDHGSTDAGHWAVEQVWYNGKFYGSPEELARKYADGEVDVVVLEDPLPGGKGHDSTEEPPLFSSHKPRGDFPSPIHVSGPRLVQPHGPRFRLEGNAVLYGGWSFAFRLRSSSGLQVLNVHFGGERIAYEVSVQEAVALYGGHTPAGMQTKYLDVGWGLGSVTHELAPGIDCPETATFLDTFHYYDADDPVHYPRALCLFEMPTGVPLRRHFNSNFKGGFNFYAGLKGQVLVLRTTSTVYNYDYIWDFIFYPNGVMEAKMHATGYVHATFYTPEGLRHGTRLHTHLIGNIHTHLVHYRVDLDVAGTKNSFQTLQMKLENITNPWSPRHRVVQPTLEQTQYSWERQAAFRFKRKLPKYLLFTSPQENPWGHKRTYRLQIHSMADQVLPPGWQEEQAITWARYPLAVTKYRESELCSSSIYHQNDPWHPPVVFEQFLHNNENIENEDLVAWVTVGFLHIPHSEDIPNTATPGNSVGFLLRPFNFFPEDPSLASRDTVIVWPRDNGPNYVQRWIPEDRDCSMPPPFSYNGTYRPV
Description: as §1
(§2) In addition, the compounds according to the present technology were evaluated in terms of activity on a recombinant human MAO-A (monoamine oxidase-A, Sigma-Aldrich) and a recombinant human MAO-B (monoamine oxidase-B, Sigma-Aldrich) by using as substrates, 0.5 mM tyramine and 1 mM benzylamine, respectively, with a method similar to the activity evaluation method for recombinant human VAP-1. The compounds according to the present technology were also evaluated in terms of activity on a recombinant human DAO (diamine oxidase, R&D systems) by using as a substrate 1 mM putrescine with a method similar to the activity evaluation method for recombinant human VAP-1.

[3] = target: T3, recombinant human MAO-A (monoamine oxidase-A) (Homo sapiens, UniProt P21397); experiment: Activity evaluation on recombinant human MAO-A (Amplex Red/HRP-coupled assay, 0.5 mM tyramine substrate); conditions: 0.5 mM tyramine, read-out: Inhibitory Activity (IC50, nM) MAO-A
T3 construct: purchased Sigma-Aldrich
T3 sequence (P21397 1-527): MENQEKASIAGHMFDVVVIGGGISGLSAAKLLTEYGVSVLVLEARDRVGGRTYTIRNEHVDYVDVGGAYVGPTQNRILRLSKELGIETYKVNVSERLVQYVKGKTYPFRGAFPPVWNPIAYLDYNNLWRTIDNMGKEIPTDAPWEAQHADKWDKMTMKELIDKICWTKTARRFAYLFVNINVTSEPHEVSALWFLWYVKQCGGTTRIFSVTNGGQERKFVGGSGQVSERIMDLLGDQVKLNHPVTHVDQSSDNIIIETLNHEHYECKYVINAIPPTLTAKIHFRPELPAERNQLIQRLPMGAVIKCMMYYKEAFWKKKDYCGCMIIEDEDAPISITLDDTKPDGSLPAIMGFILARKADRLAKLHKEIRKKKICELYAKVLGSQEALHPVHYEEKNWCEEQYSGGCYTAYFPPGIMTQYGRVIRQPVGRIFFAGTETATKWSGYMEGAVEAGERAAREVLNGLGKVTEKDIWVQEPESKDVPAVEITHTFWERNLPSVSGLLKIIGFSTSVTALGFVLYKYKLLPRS
Description: as §1, §2

[4] = target: T4, recombinant human MAO-B (monoamine oxidase-B) (Homo sapiens, UniProt P27338); experiment: Activity evaluation on recombinant human MAO-B (Amplex Red/HRP-coupled assay, 1 mM benzylamine substrate); conditions: 1 mM benzylamine, read-out: Inhibitory Activity (IC50, nM) MAO-B
T4 construct: purchased Sigma-Aldrich
T4 sequence (P27338 1-520): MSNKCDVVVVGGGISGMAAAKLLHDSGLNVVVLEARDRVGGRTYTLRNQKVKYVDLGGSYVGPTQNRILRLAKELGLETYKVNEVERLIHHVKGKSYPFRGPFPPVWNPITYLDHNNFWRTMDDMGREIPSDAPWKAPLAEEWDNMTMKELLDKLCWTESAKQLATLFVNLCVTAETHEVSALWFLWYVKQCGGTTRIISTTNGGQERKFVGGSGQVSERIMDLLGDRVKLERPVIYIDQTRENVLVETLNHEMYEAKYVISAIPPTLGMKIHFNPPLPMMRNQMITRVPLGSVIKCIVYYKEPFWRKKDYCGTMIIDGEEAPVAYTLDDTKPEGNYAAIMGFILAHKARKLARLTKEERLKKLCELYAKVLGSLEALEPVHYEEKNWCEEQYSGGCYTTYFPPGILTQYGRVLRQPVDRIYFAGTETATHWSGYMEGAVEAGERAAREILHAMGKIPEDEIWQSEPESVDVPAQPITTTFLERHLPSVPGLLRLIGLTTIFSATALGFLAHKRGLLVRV
Description: as §1, §2

| Compound | IC50 [1] | IC50 [2] | IC50 [3] | IC50 [4] |
| --- | --- | --- | --- | --- |
| Cc1cc(Br)ncc1-n1cnn(CC(CN)=C(F)F)c1=O [Example 12, 2-[2-(aminomethyl)-3,3-difluoro-allyl]-4-(6-bromo-4-methyl-3-pyridyl)-1,2,4-triazol-3-one Trifluoroacetate] | 43 nM | 55000 nM | > 100000 nM | > 10000 nM |
| Cc1cc(-n2cnn(CC(CN)=C(F)F)c2=O)cnc1Br [Example 13, 2-[2-(aminomethyl)-3,3-difluoro-allyl]-4-(6-bromo-5-methyl-3-pyridyl)-1,2,4-triazol-3-one Trifluoroacetate] | 3.6 nM | 910 nM | > 100000 nM | 3600 nM |
| NCC(Cn1ncn(-c2ncc(Br)cc2F)c1=O)=C(F)F [Example 14, 2-[2-(aminomethyl)-3,3-difluoro-allyl]-4-(5-bromo-3-fluoro-2-pyridyl)-1,2,4-triazol-3-one Trifluoroacetate] | 1.4 nM | 4100 nM | > 100000 nM | 40000 nM |
| Cc1ccc(Br)nc1-n1cnn(CC(CN)=C(F)F)c1=O [Example 15, 2-[2-(aminomethyl)-3,3-difluoro-allyl]-4-(6-bromo-3-methyl-2-pyridyl)-1,2,4-triazol-3-one Trifluoroacetate] | 3 nM | > 100000 nM | > 100000 nM | > 100000 nM |
| NCC(Cn1ncn(-c2cnc(Br)cn2)c1=O)=C(F)F [Example 16, 2-[2-(aminomethyl)-3,3-difluoro-allyl]-4-(5-bromopyrazin-2-yl)-1,2,4-triazol-3-one Trifluoroacetate] | 4.6 nM | 1100 nM | > 100000 nM | 38000 nM |
| CS(=O)(=O)c1ccc(-c2cccc(-n3cnn(CC(CN)=C(F)F)c3=O)c2)cc1 [Example 17, 2-[2-(aminomethyl)-3,3-difluoro-allyl]-4-[3-(4-methylsulfonylphenyl)phenyl]-1,2,4-triazol-3-one Trifluoroacetate] | 12 nM | 1300 nM | > 100000 nM | > 10000 nM |
| NCC(Cn1ncn(-c2cccc(-c3ccc(N4CCNCC4)cc3)c2)c1=O)=C(F)F [Example 18, 2-[2-(aminomethyl)-3,3-difluoro-allyl]-4-[3-(4-piperazin-1-ylphenyl)phenyl]-1,2,4-triazol-3-one Ditrifluoroacetate] | 15 nM | 13000 nM | > 100000 nM | > 100000 nM |
| NCC(Cn1ncn(-c2cccc(-c3ccc(C(F)(F)F)nc3)c2)c1=O)=C(F)F [Example 19, 2-[2-(aminomethyl)-3,3-difluoro-allyl]-4-[3-[6-(trifluoromethyl)-3-pyridyl]phenyl]-1,2,4-triazol-3-one Trifluoroacetate] | 5.3 nM | 240 nM | > 100000 nM | > 10000 nM |
| CN(C)c1ccc(-c2cccc(-n3cnn(CC(CN)=C(F)F)c3=O)c2)cn1 [Example 20, 2-[2-(aminomethyl)-3,3-difluoro-allyl]-4-[3-[6-(dimethylamino)-3-pyridyl]phenyl]-1,2,4-triazol-3-one Trifluoroacetate] | 2.1 nM | 350 nM | > 100000 nM | > 100000 nM |
| NCC(Cn1ncn(-c2cccc(-c3ccc4c(c3)OCO4)c2)c1=O)=C(F)F [Example 21, 2-[2-(aminomethyl)-3,3-difluoro-allyl]-4-[3-(1,3-benzodioxol-5-yl)phenyl]-1,2,4-triazol-3-one Trifluoroacetate] | 2.5 nM | 6300 nM | 36200 nM | 18000 nM |
| Cc1cc(-c2cccc(-n3cnn(CC(CN)=C(F)F)c3=O)c2)cc2c1NC(=O)CC2 [Example 22, 6-[3-[1-[2-(aminomethyl)-3,3-difluoro-allyl]-5-oxo-1,2,4-triazol-4-yl]phenyl]-8-methyl-3,4-dihydro-1H-quinolin-2-one Trifluoroacetate] | 0.8 nM | > 10000 nM | > 100000 nM | > 100000 nM |
| CCn1cc(-c2cccc(-n3cnn(CC(CN)=C(F)F)c3=O)c2)cn1 [Example 23, 2-[2-(aminomethyl)-3,3-difluoro-allyl]-4-[3-(1-ethylpyrazol-4-yl)phenyl]-1,2,4-triazol-3-one Trifluoroacetate] | 3.1 nM | 8400 nM | > 100000 nM | > 100000 nM |
